Test results as given in US5185363A, “Urea based lipoxygenase inhibiting compounds” (Abbott Laboratories, priority 1991, dated 1993).

Legend:
[1] = biological target: T1, 5-Lipoxygenase from RBL-1 20,000 xg Supernatant (Rattus norvegicus, UniProt P12527); assay: In vitro inhibition of 5-lipoxygenase from RBL-1 20,000 xg supernatant; type: biochemical; settings: radiolabeled arachidonic acid
T1 construct: supermatant from 1.5 million homogenized RBL-1 cells; endogenous in cells; host or cells: RBL-1 cells, 20,000 x g supernatant of homogenate
T1 sequence (P12527 1-673): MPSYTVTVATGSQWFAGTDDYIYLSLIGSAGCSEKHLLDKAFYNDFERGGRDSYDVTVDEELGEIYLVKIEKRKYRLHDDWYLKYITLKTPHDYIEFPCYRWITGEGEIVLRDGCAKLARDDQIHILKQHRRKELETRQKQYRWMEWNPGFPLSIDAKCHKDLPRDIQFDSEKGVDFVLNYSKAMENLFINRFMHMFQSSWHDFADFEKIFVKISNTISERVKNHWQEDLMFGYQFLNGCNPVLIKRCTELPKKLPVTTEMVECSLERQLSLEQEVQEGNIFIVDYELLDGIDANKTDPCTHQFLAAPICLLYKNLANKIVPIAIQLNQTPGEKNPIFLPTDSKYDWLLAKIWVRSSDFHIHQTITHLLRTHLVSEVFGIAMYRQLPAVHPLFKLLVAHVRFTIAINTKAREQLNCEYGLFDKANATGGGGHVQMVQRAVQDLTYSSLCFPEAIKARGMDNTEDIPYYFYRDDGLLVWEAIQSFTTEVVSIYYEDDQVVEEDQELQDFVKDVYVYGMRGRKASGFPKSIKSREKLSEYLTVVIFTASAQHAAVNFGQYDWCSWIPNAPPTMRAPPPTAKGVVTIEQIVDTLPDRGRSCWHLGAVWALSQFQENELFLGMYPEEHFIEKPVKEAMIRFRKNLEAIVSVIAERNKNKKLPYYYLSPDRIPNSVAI
Experimental: Assays to determine 5-lipoxygenase inhibitory activity were performed in […] incubations containing the 20,000xg supermatant from 1.5 million homogenized RBL-1 cells and various concentrations of the test compound. Reactions were initiated by addition of radiolabeled arachidonic acid and terminated by acidification and ether extraction. Reaction products were separated from nonconverted substrate by thin layer chromatography and measured by liquid scintillation spectroscopy. All incubations are performed in triplicate. Inhibition of 5-lipoxygenase activity was calculated as the ratio of the amount of product formed in the presence and absence of inhibitor. […] (Dyer, R.D.; Haviv, F.; Hanel, A. M.; Bornemier, D. A.; Carter, G. W. Fed. Proc., Fed. Am. Soc. Exp. Biol. 1984, 43, 1462A).

[2] = tested on: leukotriene biosynthesis; assay: In vivo inhibition of leukotriene biosynthesis, rat peritoneal anaphylaxis model; settings: 1 h, 200 μmol/kg oral dose, gavage one hour prior to antigen challenge, read-out: Percent Inhibition
Experimental: Inhibition of the biosynthesis of leukotrienes in vivo after oral administration of compound was determined using a rat peritoneal anaphylaxis model in a similar manner as that described by Young and coworkers (Young, P. R.; Dyer, R. D.; Carter, G. W. Fed. Proc., Fed. Am. Soc. Exp. Biol. 1985, 44, 1185). In this model rats were injected intraperitoneally (ip) with rabbit antibody to bovine serum albumin (BSA) and three hours later injected ip with BSA to induce an antgen-antibody response. Rats were sacrificed 15 minutes after this challenge and the peritoneal fluids were collected and analyzed for leukotriene levels. Test compounds were administered by gavage one hour prior to the antigen challenge. Percent inhibition values were determined by comparing the treatment group to the mean of the control group.

Question: What does the source list for Cc1ccc(C(C)N(O)C(N)=O)s1 (centres unmarked) [Example 12, N-Hydroxy-N-1-(5-methylthien-2-yl)ethyl urea]?
Answer: IC50 [1]: 530 nM; inhibition in vivo at 200 µmol/kg [2]: 94%

Question: For CC(c1ccc(OCc2ccccc2)cc1)N(O)C(=O)NO (centres unmarked) [Example 4], which IC50 [1] is on record?
Answer: 500 nM

Question: And the inhibition in vivo at 200 µmol/kg [2]?
Answer: 63%

Question: Which IC50 [1] does the source give for CC(c1ccc(OCc2ccccc2)cc1)N(O)C(N)=O (centres unmarked) [Example 1, N-hydroxy-N-(1(4-phenylmethoxyphenyl)ethyl)urea] here?
Answer: 430 nM

Question: And the inhibition in vivo at 200 µmol/kg [2]?
Answer: 58%

Question: CC(c1ccc(C(F)(F)F)cc1)N(O)C(N)=O (centres unmarked) [Example 111, N-Hydroxy-N-(1-(4-trifluoromethylphenyl)ethyl) urea] was tested. Which inhibition in vivo at 200 µmol/kg [2] did it give?
Answer: 97%

Question: How did the IC50 [1] turn out when NC(=O)N(O)CC=Cc1ccsc1 [Example 68, N-hydroxy-N-(3-(1-thien-3-yl)propenyl) urea] was run?
Answer: 1900 nM

Question: What about the inhibition in vivo at 200 µmol/kg [2] of the same molecule?
Answer: 93%

Question: With CC(c1ccc(Br)cc1)N(O)C(=O)NCCO (centres unmarked) [Example 99, N-Hydroxy-N-1-(4-bromophenyl)ethyl-N'-(2-hydroxyethyl)-urea] as the molecule, how does the IC50 [1] read?
Answer: 300 nM

Question: What about the inhibition in vivo at 200 µmol/kg [2] of the same molecule?
Answer: 84%

Question: For CC(c1ccsc1)N(O)C(N)=O (centres unmarked) [Example 43, N-Hydroxy-N-1-(thien-3-yl)ethyl urea], which IC50 [1] is on record?
Answer: 3500 nM

Question: What about the inhibition in vivo at 200 µmol/kg [2] of the same molecule?
Answer: 66%

Question: How did the IC50 [1] turn out when CC(c1ccc(-c2ccccc2)s1)N(O)C(N)=O (centres unmarked) [Example 56, N-hydroxy-N-(1-(5-phenylthien-2-yl)ethyl)urea] was run?
Answer: 400 nM

Question: And the inhibition in vivo at 200 µmol/kg [2]?
Answer: 89%

Question: Which results are given for Cc1cc(C(C)N(O)C(N)=O)c(C)s1 (centres unmarked) [Example 42, N-Hydroxy-N-1-(2,5-dimethylthien-3-yl)ethyl urea]?
Answer: IC50 [1]: 1500 nM; inhibition in vivo at 200 µmol/kg [2]: 64%

Question: How did the IC50 [1] turn out when CC(c1ccc(Cl)cc1)N(O)C(N)=O (centres unmarked) [Example 107, N-Hydroxy-N-(1-(4-chlorophenyl)ethyl) urea] was run?
Answer: 600 nM

Question: What about the inhibition in vivo at 200 µmol/kg [2] of the same molecule?
Answer: 99%

Question: Which IC50 [1] does the source give for Cc1ccc(CN(O)C(N)=O)s1 [Example 51, N-hydroxy-N-(5-methylthien-2-yl)methyl urea] here?
Answer: 200 nM

Question: And the inhibition in vivo at 200 µmol/kg [2]?
Answer: 94%

Question: CC(c1ccc2ccccc2c1)N(O)C(N)=O (centres unmarked) [Example 9, N-hydroxy-N-(1-(2-naphthyl)ethyl) urea] was tested. Which inhibition in vivo at 200 µmol/kg [2] did it give?
Answer: 69%

Question: Which results are given for NC(=O)N(O)Cc1cccs1 [Example 45, N-hydroxy-N-(thien-2-yl)methyl urea]?
Answer: IC50 [1]: 6800 nM; inhibition in vivo at 200 µmol/kg [2]: 97%

Question: Which results are given for NC(=O)N(O)Cc1ccc(-c2ccccn2)s1 [Example 55, N-hydroxy-N-(1-(5-(pyrid-2-yl)thien-2-yl)methyl) urea]?
Answer: IC50 [1]: 2100 nM; inhibition in vivo at 200 µmol/kg [2]: 71%

Question: With Cc1ccsc1CN(O)C(N)=O [Example 49, N-hydroxy-N-(3-methylthien-2-yl)methyl urea] as the molecule, how does the inhibition in vivo at 200 µmol/kg [2] read?
Answer: 94%

Question: How did the inhibition in vivo at 200 µmol/kg [2] turn out when CC(c1ccc(-c2ccccc2)cc1)N(O)C(N)=O (centres unmarked) [Example 120, N-Hydroxy-N-(1-(4-biphenyl)ethyl) urea] was run?
Answer: 77%

Question: CCC(c1ccc(Br)cc1)N(O)C(N)=O (centres unmarked) [Example 102, N-Hydroxy-N-(1-(4-bromophenyl)propyl) urea] was tested. Which inhibition in vivo at 200 µmol/kg [2] did it give?
Answer: 85%

Question: With NC(=O)N(O)Cc1cc(Oc2ccccc2)cs1 [Example 157, N-hydroxy-N-[4-(phenoxy)thien-2-yl]methyl urea] as the molecule, how does the IC50 [1] read?
Answer: 500 nM

Question: With NC(=O)N(O)Cc1sccc1Oc1ccccc1 [Example 156, N-hydroxy-N-[3-(phenoxy)thien-2-yl]methyl urea] as the molecule, how does the IC50 [1] read?
Answer: 1000 nM

Question: For CCCCOc1ccc(C(C)N(O)C(N)=O)cc1 (centres unmarked) [Example 119, N-Hydroxy-N-(1-(4-butoxyphenyl)ethyl) urea], which IC50 [1] is on record?
Answer: 530 nM

Question: For NC(=O)N(O)Cc1ccc(Cl)s1 [Example 129, N-hydroxy-N-(5-chlorothien-2-yl)methyl urea], which IC50 [1] is on record?
Answer: 2000 nM

Question: With NC(=O)N(O)Cc1sccc1SCc1ccco1 [Example 146, N-hydroxy-N-[3-(2-furfurylmethylthio)thien-2-yl]methyl urea] as the molecule, how does the IC50 [1] read?
Answer: 700 nM

Question: Which inhibition in vivo at 200 µmol/kg [2] does the source give for CCC(c1ccc(Br)cc1)N(O)C(=O)NC (centres unmarked) [Example 103, N-Hydroxy-N-(1-(4-bromophenyl)propyl)-N'-methylurea] here?
Answer: 88%
